# Molecular target: T1, human cGAS (residues 161-522) (Homo sapiens, UniProt Q8N884)
# T1 construct: Recombinantly expressed purified human cGAS (residues 161-522) was used at 25 nM; made in house
# Test: cGAS Activity Assay - Malachite Green (coupled enzymatic assay, phosphate detection)
# Assay type: biochemical
# Details: recombinant human cGAS 25 nM, 80 μM ATP, 80 μM GTP, 100 nM ISD, 4 hour at RT
# Procedure: cGAS Activity Assay—Malachite Green
# Compounds were tested for cGAS inhibition in a coupled enzymatic assay based on Phosphate detection by Malachite Green. Final assay conditions were 20 mM TRIS pH 7.5 (Applichem), 5 mM MgCl2 (Sigma) and 0.01% BSA (Sigma) supplemented with 80 μM ATP (Sigma), 80 μM GTP (Sigma) and 100 nM Interferon Stimulating DNA (ISD) (Microsynth). Recombinantly expressed purified human cGAS (residues 161-522) was used at 25 nM.
# All compounds were prepared as 10 mM stock solutions in DMSO and a 16 pt dilution series in DMSO with a dilution factor of 2.5 was prepared. 1 μL of DMSO dilution series was transferred to 32.3 μL reaction buffer, mixed by pipetting up/down, spun for 1 minute at 3000 rpm and was visually inspected for precipitation. 5 μL of 3-fold enzyme stock solution were transferred to an empty 384-well Black/Clear Flat Bottom Polystyrene NBS (Corning) rows 3-24. Rows 1-2 were filled with assay buffer. Plates were spun 10 seconds at 1000 rpm (164×g). 5 μL of compound intermediate dilution was added and mixed by pipetting up/down to rows 3-24. Rows 1-2 were filled with 3.1% DMSO assay buffer. Plates were spun 10 seconds at 1000 rpm (164×g). 5 μL 3-fold Nucleotide/DNA mix was added to all wells to start the reaction. Plates were spun 10 seconds at 1000 rpm (164×g) and incubated for 4 hour at room temperature (RT) in the dark. 5 μL 4 U/mL PPase (Sigma) were added to all wells. Plates spun 10 seconds at 1000 rpm (164×g). 10 μL BioMol green Solution (Enzo Life Sciences) was added to all wells. Plates spun 10 seconds at 1000 rpm (164×g) and incubated 30 minutes at RT in the dark. Absorbance data was collected 620 nm on an EnVision Multilable Reader (Perkin Elmer) and the following measurement settings were used: excitation filter photometric was 620 nm; excitation from the top; measurement height was 1 mm; number of flashes was 30; number of flashes integrated was 1.
# All plates are checked for abnormalities and outliers in the Blank Control (no protein, row 1) and the Neutral Control (no compound, row 2) are excluded using the 3*SD rule. Data was normalized to 0 and 100% by Blank and Neutral Control and each curve was fitted and judged using the 4 parameter logistic equation to determine the IC50 for cGAS inhibition.
# Table 2 provides IC50 values (μM ) for cGAS inhibition obtained for particular examples of the present invention as measured by the above-described assay.
# T1 sequence (Q8N884 161-522): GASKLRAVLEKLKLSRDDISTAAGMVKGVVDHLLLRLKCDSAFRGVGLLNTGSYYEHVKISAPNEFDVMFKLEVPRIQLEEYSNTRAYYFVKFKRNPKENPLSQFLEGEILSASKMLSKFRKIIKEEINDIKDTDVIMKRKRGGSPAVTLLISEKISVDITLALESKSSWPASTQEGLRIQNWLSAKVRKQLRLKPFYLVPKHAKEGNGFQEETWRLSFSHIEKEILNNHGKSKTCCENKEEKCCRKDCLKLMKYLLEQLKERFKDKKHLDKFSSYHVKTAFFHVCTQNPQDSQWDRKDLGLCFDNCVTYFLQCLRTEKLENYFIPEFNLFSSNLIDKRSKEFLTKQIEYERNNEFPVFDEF
row,IC50 [nM],SMILES
1,970,"Cc1oncc1/C(O)=C(\C#N)C(=O)Nc1nc2c(c(-c3ccccc3)n1)CCCC2 [Example 22, (Z)-2-cyano-3-hydroxy-3-(5-methylisoxazol-4-yl)-N-(4-phenyl-5,6,7,8-tetrahydroquinazolin-2-yl)acrylamide]"
2,8480,"Cc1cnoc1/C(O)=C(\C#N)C(=O)Nc1ccc(C(F)(F)F)cc1 [Example 14, (Z)-2-cyano-3-hydroxy-3-(4-methylisoxazol-5-yl)-N-(4-(trifluoromethyl)phenyl) acrylamide]"
3,1270,"COC(=O)c1sccc1NC(=O)/C(C#N)=C(\O)c1cnoc1C [Example 9, methyl (Z)-3-(2-cyano-3-hydroxy-3-(5-methylisoxazol-4-yl)acrylamido) thiophene-2-carboxylate]"
4,820,"CCOC(=O)c1c(C)csc1NC(=O)/C(C#N)=C(\O)c1cnoc1C [Example 10, ethyl (Z)-2-(2-cyano-3-hydroxy-3-(5-methylisoxazol-4-yl)acrylamido)-4-methylthiophene-3-carboxylate]"
5,1020,"COc1ccc(NC(=O)/C(C#N)=C(\O)c2cnoc2C)nn1 [Example 7, (Z)-2-cyano-3-hydroxy-N-(6-methoxypyridazin-3-yl)-3-(5-methylisoxazol-4-yl)prop-2-enamide]"
6,5210,"COc1nc(NC(=O)/C(C#N)=C(\O)c2cnoc2C)nc2c1CCCC2 [Example 23, (Z)-2-cyano-3-hydroxy-N-(4-methoxy-5,6,7,8-tetrahydroquinazolin-2-yl)-3-(5-methylisoxazol-4-yl)acrylamide]"
7,500,"Cc1cccc(C)c1NC(=O)c1ccc(NC(=O)/C(C#N)=C(\O)c2cnoc2C)cn1 [Example 20, (Z)-5-(2-cyano-3-hydroxy-3-(5-methylisoxazol-4-yl)acrylamido)-N-(2,6-dimethylphenyl) picolinamide]"
8,1130,"COC(=O)c1ccc(NC(=O)/C(C#N)=C(\O)c2conc2C)cc1 [Example 12, methyl (Z)-4-(2-cyano-3-hydroxy-3-(3-methylisoxazol-4-yl)acrylamido) benzoate]"
9,840,"COc1cnc(NC(=O)/C(C#N)=C(\O)c2cnoc2C)cn1 [Example 19, (Z)-2-cyano-3-hydroxy-N-(5-methoxypyrazin-2-yl)-3-(5-methylisoxazol-4-yl)prop-2-enamide]"
10,220,"Cc1oncc1/C(O)=C(\C#N)C(=O)Nc1ccc2c(c1)CCC2=O [Example 3, (Z)-2-cyano-3-hydroxy-3-(5-methylisoxazol-4-yl)-N-(1-oxoindan-5-yl)prop-2-enamide]"
11,450,"Cc1nc(NC(=O)/C(C#N)=C(\O)c2cnoc2C)nc2c1CS(=O)(=O)CC2 [Example 24, (Z)-2-cyano-3-hydroxy-N-(4-methyl-6,6-dioxido-7,8-dihydro-5H-thiopyrano[4,3-d]pyrimidin-2-yl)-3-(5-methylisoxazol-4-yl)acrylamide]"
12,1790,"Cc1oncc1/C(O)=C(\C#N)C(=O)Nc1cccc2ccccc12 [Example 16, (Z)-2-cyano-3-hydroxy-3-(5-methylisoxazol-4-yl)-N-(naphthalen-1-yl)acrylamide]"
13,1570,"Cc1oncc1/C(O)=C(\C#N)C(=O)Nc1cccnc1 [Example 2, (Z)-2-cyano-3-hydroxy-3-(5-methylisoxazol-4-yl)-N-(3-pyridyl)prop-2-]"
14,620,"Cc1oncc1/C(O)=C(\C#N)C(=O)Nc1ccncc1 [Example 18, (Z)-2-cyano-3-hydroxy-3-(5-methylisoxazol-4-yl)-N-(4-pyridyl)prop-2-enamide]"
15,170,"Cc1oncc1/C(O)=C(\C#N)C(=O)Nc1ccn(C)c(=O)c1 [Example 5, (Z)-2-cyano-3-hydroxy-3-(5-methylisoxazol-4-yl)-N-(1-methyl-2-oxo-4-pyridyl)prop-2-enamide]"
16,180,"Cc1oncc1/C(O)=C(\C#N)C(=O)Nc1cc[nH]c(=O)c1 [Example 6, (Z)-2-cyano-3-hydroxy-3-(5-methylisoxazol-4-yl)-N-(2-oxo-1H-pyridin-4-yl)prop-2-enamide]"
17,1340,"COc1ccc(NC(=O)/C(C#N)=C(\O)c2cnoc2C)cn1 [Example 8, (Z)-2-cyano-3-hydroxy-N-(6-methoxy-3-pyridyl)-3-(5-methylisoxazol-4-yl)prop-2-enamide]"
18,1110,"Cc1oncc1/C(O)=C(\C#N)C(=O)Nc1ccc2ccccc2c1 [Example 17, (Z)-2-cyano-3-hydroxy-3-(5-methylisoxazol-4-yl)-N-(naphthalen-2-yl)acrylamide]"
19,1060,"COc1cccc(-c2cc3cc(NC(=O)/C(C#N)=C(\O)c4cnoc4C)ccc3c(=O)[nH]2)c1 [Example 21, (Z)-2-cyano-3-hydroxy-N-(3-(3-methoxyphenyl)-1-oxo-1,2-dihydroisoquinolin-6-yl)-3-(5-methylisoxazol-4-yl)acrylamide]"
20,3990,"Cc1nocc1/C(O)=C(\C#N)C(=O)Nc1ccc(C(F)(F)F)cc1 [Example 11, (Z)-2-cyano-3-hydroxy-3-(3-methylisoxazol-4-yl)-N-(4-(trifluoromethyl)phenyl) acrylamide]"
21,1850,"Cn1cncc1/C(O)=C(\C#N)C(=O)Nc1ccc(C(F)(F)F)cc1 [Example 1, (Z)-2-Cyano-3-hydroxy-3-(1-methyl-1H-imidazol-5-yl)-N-(4-(trifluoromethyl)phenyl)acrylamide]"
22,4760,"Cc1sncc1/C(O)=C(\C#N)C(=O)Nc1ccc(C(F)(F)F)cc1 [Example 15, (Z)-2-cyano-3-hydroxy-3-(5-methylisothiazol-4-yl)-N-(4-(trifluoromethyl)phenyl) acrylamide]"
23,7190,"N#C/C(C(=O)Nc1ccc(C(F)(F)F)cc1)=C(/O)c1cnco1 [Example 13, (Z)-2-cyano-3-hydroxy-3-(oxazol-5-yl)-N-(4-(trifluoromethyl)phenyl) acrylamide]"
24,6310,"Cn1nncc1/C(O)=C(\C#N)C(=O)Nc1ccc(C(F)(F)F)cc1 [Example 4, (Z)-2-cyano-3-hydroxy-3-(1-methyl-1H-1,2,3-triazol-5-yl)-N-(4-(trifluoromethyl)phenyl) acrylamide]"

# From patent publication US20230242520A1, “MALONITRILE DERIVATIVES” (Hoffmann-La Roche Inc., priority 2020, published 2023)
